# Measured values published in PubChem BioAssay AID1963423 (Molecular Pharmacology Branch, DTP, NCI, 2024).
# System: 439559-082-T-J2-PDC complex spheroid growth
# Assay: Anticancer human tumor 439559-082-T-J2-PDC patient-derived colon adenocarcinoma cell line growth inhibition [Asc]
# Settings: for IC50: curve of first compound; for viability, T/C: stronger effect = lower value
# How it was run: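 Spheroid model: tumor line + HUVEC + hMSC. Single agents and combinations; top conc. at/near clinical Cmax (10 microM if undetermined), half-log dilutions. DMSO stocks at 800-fold test concentration.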
# [1] = second compound 0.1 µM, first compound 0.00316 µM
# [2] = second compound 0.1 µM, first compound 0.01 µM
# [3] = second compound 0.1 µM, first compound 0.0316 µM
# [4] = second compound 0.1 µM, first compound 0.1 µM
# [5] = second compound 0.1 µM, first compound 0.316 µM
# [6] = second compound 0.1 µM, first compound 1 µM
# [7] = second compound 0.316 µM, first compound 0.00316 µM
# [8] = second compound 0.316 µM, first compound 0.01 µM
# [9] = second compound 0.316 µM, first compound 0.0316 µM
# [10] = second compound 0.316 µM, first compound 0.1 µM
# [11] = second compound 0.316 µM, first compound 0.316 µM
# [12] = second compound 0.316 µM, first compound 1 µM
# [13] = second compound 1 µM, first compound 0.00316 µM
# [14] = second compound 1 µM, first compound 0.01 µM
# [15] = second compound 1 µM, first compound 0.0316 µM
# [16] = second compound 1 µM, first compound 0.1 µM
# [17] = second compound 1 µM, first compound 0.316 µM
# [18] = second compound 1 µM, first compound 1 µM
# [19] = second compound 3.16 µM, first compound 0.00316 µM
# [20] = second compound 3.16 µM, first compound 0.01 µM
# [21] = second compound 3.16 µM, first compound 0.0316 µM
# [22] = second compound 3.16 µM, first compound 0.1 µM
# [23] = second compound 3.16 µM, first compound 0.316 µM
# [24] = second compound 3.16 µM, first compound 1 µM
# [25] = second compound 10 µM, first compound 0.00316 µM
# [26] = second compound 10 µM, first compound 0.01 µM
# [27] = second compound 10 µM, first compound 0.0316 µM
# [28] = second compound 10 µM, first compound 0.1 µM
# [29] = second compound 10 µM, first compound 0.316 µM
# [30] = second compound 10 µM, first compound 1 µM
# 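Note: spheroids exposed to agents for 7 days starting day 3 after seeding.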
# 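Throughout, for viability, T/C: percent of DMSO vehicle control viability with 100% = vehicle.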
SMILES,IC50 (second compound 0.1 µM) [nM],IC50 (second compound 0.316 µM) [nM],IC50 (second compound 1 µM) [nM],IC50 (second compound 3.16 µM) [nM],IC50 (second compound 10 µM) [nM],"viability, T/C [1] [%]","viability, T/C [2] [%]","viability, T/C [3] [%]","viability, T/C [4] [%]","viability, T/C [5] [%]","viability, T/C [6] [%]","viability, T/C [7] [%]","viability, T/C [9] [%]","viability, T/C [10] [%]","viability, T/C [15] [%]","viability, T/C [16] [%]","viability, T/C [21] [%]","viability, T/C [22] [%]","viability, T/C [27] [%]","viability, T/C [28] [%]",other results
CCN1CCN(Cc2ccc(Nc3ncc(F)c(-c4cc(F)c5nc(C)n(C(C)C)c5c4)n3)nc2)CC1 + Cc1c(S(C)(=O)=O)c(-c2cc(F)cc(N3CCN(c4ccc(NS(=O)(=O)c5ccc(NC(CCN6CCC(C(=O)OCCCP(=O)(O)O)CC6)CSc6ccccc6)c(S(=O)(=O)C(F)(F)F)c5)cc4)CC3)c2)c(-c2ccc(Cl)cc2)n1C(C)C,> 1000,> 1000,> 1000,> 1000,> 1000,93.5,107,94.2,85.3,92.8,80.5,101,103,78.5,94.3,80.5,98.9,72.4,83.2,63.5,"viability, T/C [8]: 102%; viability, T/C [11]: 84.2%; viability, T/C [12]: 73.4%; viability, T/C [13]: 96.5%; viability, T/C [14]: 93.5%; viability, T/C [17]: 80%; viability, T/C [18]: 70%; viability, T/C [19]: 85.1%; viability, T/C [20]: 92.5%; viability, T/C [23]: 69.4%; viability, T/C [24]: 68.6%; viability, T/C [25]: 82.4%; viability, T/C [26]: 81.7%; viability, T/C [29]: 61.2%; viability, T/C [30]: 50.1%"
Cn1ncnc1[C@H]1c2n[nH]c(=O)c3cc(F)cc(c23)N[C@@H]1c1ccc(F)cc1 + Cc1c(S(C)(=O)=O)c(-c2cc(F)cc(N3CCN(c4ccc(NS(=O)(=O)c5ccc(NC(CCN6CCC(C(=O)OCCCP(=O)(O)O)CC6)CSc6ccccc6)c(S(=O)(=O)C(F)(F)F)c5)cc4)CC3)c2)c(-c2ccc(Cl)cc2)n1C(C)C,> 100,> 100,> 100,> 100,> 100,103,85.5,98,87.7,,,102,90.4,84.8,85.4,81.1,79.4,76.3,70.8,66.5,"viability, T/C (second compound 0.1 µM, first compound 0.000316 µM): 102%; viability, T/C (second compound 0.1 µM, first compound 0.001 µM): 106%; viability, T/C (second compound 0.316 µM, first compound 0.000316 µM): 100%; viability, T/C (second compound 0.316 µM, first compound 0.001 µM): 98.8%; viability, T/C [8]: 90.2%; viability, T/C (second compound 1 µM, first compound 0.000316 µM): 91%; viability, T/C (second compound 1 µM, first compound 0.001 µM): 93.3%; viability, T/C [13]: 102%; viability, T/C [14]: 83%; viability, T/C (second compound 3.16 µM, first compound 0.000316 µM): 85%; viability, T/C (second compound 3.16 µM, first compound 0.001 µM): 89.3%; viability, T/C [19]: 92.7%; viability, T/C [20]: 81.3%; viability, T/C (second compound 10 µM, first compound 0.000316 µM): 72.7%; viability, T/C (second compound 10 µM, first compound 0.001 µM): 74%; viability, T/C [25]: 75%; viability, T/C [26]: 76.8%"
O=C(c1cc(Cc2n[nH]c(=O)c3ccccc23)ccc1F)N1CCN(C(=O)C2CC2)CC1 + Cc1c(S(C)(=O)=O)c(-c2cc(F)cc(N3CCN(c4ccc(NS(=O)(=O)c5ccc(NC(CCN6CCC(C(=O)OCCCP(=O)(O)O)CC6)CSc6ccccc6)c(S(=O)(=O)C(F)(F)F)c5)cc4)CC3)c2)c(-c2ccc(Cl)cc2)n1C(C)C,> 10000,> 10000,> 10000,> 10000,> 10000,,,101,110,98.4,92.6,,86,102,91.3,101,93,101,71.6,73.6,"viability, T/C (second compound 0.1 µM, first compound 3.16 µM): 98.1%; viability, T/C (second compound 0.1 µM, first compound 10 µM): 90.9%; viability, T/C [11]: 109%; viability, T/C [12]: 92.5%; viability, T/C (second compound 0.316 µM, first compound 3.16 µM): 99%; viability, T/C (second compound 0.316 µM, first compound 10 µM): 90.3%; viability, T/C [17]: 105%; viability, T/C [18]: 93%; viability, T/C (second compound 1 µM, first compound 3.16 µM): 92.4%; viability, T/C (second compound 1 µM, first compound 10 µM): 92.8%; viability, T/C [23]: 96.1%; viability, T/C [24]: 80%; viability, T/C (second compound 3.16 µM, first compound 3.16 µM): 98.4%; viability, T/C (second compound 3.16 µM, first compound 10 µM): 86.1%; viability, T/C [29]: 92.2%; viability, T/C [30]: 84.1%; viability, T/C (second compound 10 µM, first compound 3.16 µM): 76.5%; viability, T/C (second compound 10 µM, first compound 10 µM): 72.7%"
O=C(c1ccc(F)c(F)c1Nc1ccc(I)cc1F)N1CC(O)([C@@H]2CCCCN2)C1 + Cc1c(S(C)(=O)=O)c(-c2cc(F)cc(N3CCN(c4ccc(NS(=O)(=O)c5ccc(NC(CCN6CCC(C(=O)OCCCP(=O)(O)O)CC6)CSc6ccccc6)c(S(=O)(=O)C(F)(F)F)c5)cc4)CC3)c2)c(-c2ccc(Cl)cc2)n1C(C)C,201,188,141,104,56.6,96.7,105,76,57.5,47.7,16.9,96,79.8,59.5,84.6,48.5,76.3,45.4,68.3,32.6,"viability, T/C [8]: 103%; viability, T/C [11]: 42.6%; viability, T/C [12]: 11.5%; viability, T/C [13]: 88.8%; viability, T/C [14]: 96.1%; viability, T/C [17]: 38.2%; viability, T/C [18]: 7.87%; viability, T/C [19]: 91.6%; viability, T/C [20]: 90.9%; viability, T/C [23]: 29.9%; viability, T/C [24]: 4.98%; viability, T/C [25]: 76.5%; viability, T/C [26]: 68.7%; viability, T/C [29]: 19.1%; viability, T/C [30]: 2.9%"
